ChEMBL document CHEMBL3045380, “Effects of a prenyl-baicalein derivative on ER (+) MCF-7 and ER () MDA-MB-231 breast tumor cell lines” (2012)
Calls of active or inactive are those of the source. The calls are words filed in the database; no cut-off is given here.

Assays:
MCF-7 [1] = test: Antagonist activity at estrogen receptor in Homo sapiens (human) MCF-7 cells assessed as potentiation of fluvestrant-induced reduction in [3H]thymidine incorporation at 3.13 to 6.25 uM aftestrogen receptor 72 hr by liquid scintillation counting; format: cell-based
MCF-7 [2] = test: Antagonist activity at estrogen receptor in Homo sapiens (human) MCF-7 cells assessed as potentiation of 4-hydroxytamoxifen-induced reduction in [3H]thymidine incorporation aftestrogen receptor 72 hr by liquid scintillation counting; format: cell-based
MCF-7 [3] = test: Antagonist activity at estrogen receptor in Homo sapiens (human) MCF-7 cells assessed as inhibition of 17betaestradiol-induced [3H]thymidine incorporation at 0.1 to 0.78 uM aftestrogen receptor 72 hr by liquid scintillation counting; format: cell-based
MCF-7 [4] = test: Agonist activity at estrogen receptor in Homo sapiens (human) MCF-7 cells grown in stestrogen receptoroid free RPMI medium assessed as incorporation of [3H]thymidine at 0.1 to 0.2 uM aftestrogen receptor 72 hr by liquid scintillation counting; format: cell-based
MDA-MB-231 [5] = test: Antiproliferative activity against Homo sapiens (human) ER-deficient MDA-MB-231 cells grown in steroid free RPMI medium assessed as inhibition of [3H]thymidine incorporation at 3.13 to 100 uM after 72 hr by liquid scintillation counting; format: functional, cell-based
MCF-7 [6] = test: Antagonist activity at estrogen receptor in Homo sapiens (human) MCF-7 cells grown in stestrogen receptoroid free RPMI medium assessed as inhibition of [3H]thymidine incorporation at 3.13 to 100 uM aftestrogen receptor 72 hr by liquid scintillation counting; format: cell-based
MDA-MB-231 [7] = test: Cytotoxicity against Homo sapiens (human) ER-deficient MDA-MB-231 cells grown in steroid free RPMI medium at 3.13 to 100 uM after 72 hr by SRB assay; format: functional, cell-based
MDA-MB-231 [8] = test: Cytotoxicity against Homo sapiens (human) ER-deficient MDA-MB-231 cells grown in RPMI medium at 3.13 to 100 uM after 48 hr by SRB assay; format: functional, cell-based
MCF7 [9] = test: Inhibition of ER in Homo sapiens (human) MCF-7 cells grown in steroid free RPMI medium assessed as cell death at 3.13 to 100 uM after 72 hr by SRB assay; format: functional, cell-based
MCF-7 [10] = test: Inhibition of estrogen receptor in Homo sapiens (human) MCF-7 cells grown in RPMI medium assessed as cell death at 3.13 to 100 uM aftestrogen receptor 48 hr by SRB assay; format: cell-based
MCF7 [11] = test: Cytotoxicity against Homo sapiens (human) MCF-7 cells expressing ER after 48 hr by SRB assay; format: functional
MDA-MB-231 [12] = test: Cytotoxicity against Homo sapiens (human) ER-deficient MDA-MB-231 cells after 48 hr by SRB assay; format: functional

CC(C)=CCOc1cc2oc(-c3ccccc3)cc(=O)c2c(O)c1O
Activity (MCF-7 [1]): Active | Activity (MCF-7 [2]): Dose-dependent effect | inhibition (MCF-7 [3]): Active | Activity (MCF-7 [4]): Active | Activity (MDA-MB-231 [5]): Active | inhibition (MCF-7 [6]): Active | Activity (MDA-MB-231 [7]): Active | Activity (MDA-MB-231 [8]): Active | inhibition (MCF7 [9]): Active | inhibition (MCF-7 [10]): inactive | Activity (MCF7 [11]): Dose-dependent effect | GI50 (MCF7 [11]; MCF7, 48 h): 11.2 µM | Activity (MDA-MB-231 [12]): Dose-dependent effect | GI50 (MDA-MB-231 [12]; MDA-MB-231, 48 h): 29.7 µM
